One experiment relates to Ross broiler chicks. The experiment in a line: Broiler pen trial, early chick growth to 15 days (organic acids and sodium butyrate). The format is in vivo. An excerpt: In a broiler trial four different treatments were used in order to evaluate the possible synergistic effect between organic acids and sodium butyrate.
This pen trial included eight replicates of four treatments (Table 1). Each pen had 74 mixed sex commercial Ross broiler chicks. Birds were fed a wheat-based diet including enzymes. All birds were weighed on days 1, 5, 10 and 15.

Another experiment has as its system Ross broilers. The experiment in a line: Broiler floor pen trial to day 39, formulations with or without calcium butyrate vs Avilamycine. The format is in vivo. An excerpt: The objective of this trial was to study and compare two formulations (Table 4) with organic acids and calcium salts of organic acids. One of the formulations included calcium butyrate. Both formulations were compared with a positive and negative control in order to evaluate their possible growth promoting effect evaluated by broiler performance.
Twelve-hundred Ross broilers were divided over 40 floor pens. Each pen contained 15 male and 15 female Ross broilers, one tube feeder and one bell drinker. Feed and water were available ad libitum. All birds received a broiler starter feed from day 0 until day 11 and a broiler finisher meal from day 11 until day 39. […] Pens were assigned to one of four treatments (ten replicate pens for each treatment) using a block randomization. The in feed treatments consisted of: A. no treatment (negative control); B. Avilamycine 10 g/ton (positive control, dosed as Maxus G200 at 50 g/ton); C. Mixture 1, 5000 g/ton and D. mixture 2, 5000 g/ton. In the broiler house the temperature program started on day 0 at 31° C. decreasing 1° C. every two days until 21° C. was reached. The day-night cycle was 23 hours light and 1 hour dark. All birds were weighed at days 0, 11, 25, and 39. Feed usage was measured at days 11, 25 and 39. Live performance data were analyzed as a randomized block design with pen means as the statistical unit. Statistical analysis was performed with Figurepad Instat 2.0 and Microsoft Excel Analysis Toolpak software.

Where [1] appears, read: to 15 days, wheat-based diet, doses as in Table 1.
Where [2] appears, read: day 11, Avilamycine 10 g/ton, formulations 5000 g/ton in feed, mean ± SD.
[3] abbreviates: day 25, Avilamycine 10 g/ton, formulations 5000 g/ton in feed, mean ± SD.
[4] abbreviates: day 39, Avilamycine 10 g/ton, formulations 5000 g/ton in feed, mean ± SD.

`CCCC(=O)[O-].[Na+]` [Treatment B, sodium butyrate]: the “Feed conversion ratio based on weight gain, statistical comparison with control/other treatments” value with Ross broiler chicks (day 15, P<0.039 for the combination) is “not statistically different from the control group”. In the experiment on Ross broiler chicks (setting [1]), the “FCR based on wt gain” value came out at 1.279a, the “Feed consumed (g/bird)” value came to 441.3 g/bird and the “Weight gain (g/bird)” value is recorded as 358.4a g/bird.

For the molecule Avilamycine, in the experiment with Ross broilers (setting [2]), the “FCR day 11” value was 1.314 ± 0.034 a and the “WG(g) Day 11” value worked out at 227 ± 7 a g. For the same molecule, the “Weight gain compared with control groups, in words” value in the experiment with Ross broilers (day 25) is given as “performed better than the negative control group”. In the experiment on Ross broilers (setting [3]), the “FCR day 25” value came out at 1.775 ± 0.135 a and the “WG(g) Day 25” value is listed as 853 ± 44 b g. Besides, in the experiment with Ross broilers (setting [4]), the “FCR day 39” value amounted to 1.839 ± 0.061 ab and the “WG(g) Day 39” value came to 1981 ± 58 b g.
